Measured values from US8901305B2, “Aryl lactam kinase inhibitors” (Bristol-Myers Squibb Company, priority 2012, dated 2014).

target: T1, GST-Xa-hAAK1 (Homo sapiens, UniProt Q2M2I8); assay: AAK1 kinase assay; assay type: biochemical; settings: ATP 22 μM, 3 hours at room temperature
T1 construct: made in house
Protocol: The assays were performed in U-bottom 384-well plates. […] The reactions were initiated by the combination of bacterially expressed, GST-Xa-hAAK1 with substrates and test compounds. The reactions were incubated at room temperature for 3 hours and terminated by adding 60 μl of 35 mM EDTA buffer to each sample. The reactions were analyzed on the Caliper LabChip 3000 (Caliper, Hopkinton, Mass.) by electrophoretic separation of the fluorescent substrate and phosphorylated product. […] Compounds were dissolved at 10 mM in dimethylsulfoxide (DMSO) and evaluated at eleven concentrations. IC50 values were derived by non-linear regression analysis.

T1 sequence (Q2M2I8 whole entry): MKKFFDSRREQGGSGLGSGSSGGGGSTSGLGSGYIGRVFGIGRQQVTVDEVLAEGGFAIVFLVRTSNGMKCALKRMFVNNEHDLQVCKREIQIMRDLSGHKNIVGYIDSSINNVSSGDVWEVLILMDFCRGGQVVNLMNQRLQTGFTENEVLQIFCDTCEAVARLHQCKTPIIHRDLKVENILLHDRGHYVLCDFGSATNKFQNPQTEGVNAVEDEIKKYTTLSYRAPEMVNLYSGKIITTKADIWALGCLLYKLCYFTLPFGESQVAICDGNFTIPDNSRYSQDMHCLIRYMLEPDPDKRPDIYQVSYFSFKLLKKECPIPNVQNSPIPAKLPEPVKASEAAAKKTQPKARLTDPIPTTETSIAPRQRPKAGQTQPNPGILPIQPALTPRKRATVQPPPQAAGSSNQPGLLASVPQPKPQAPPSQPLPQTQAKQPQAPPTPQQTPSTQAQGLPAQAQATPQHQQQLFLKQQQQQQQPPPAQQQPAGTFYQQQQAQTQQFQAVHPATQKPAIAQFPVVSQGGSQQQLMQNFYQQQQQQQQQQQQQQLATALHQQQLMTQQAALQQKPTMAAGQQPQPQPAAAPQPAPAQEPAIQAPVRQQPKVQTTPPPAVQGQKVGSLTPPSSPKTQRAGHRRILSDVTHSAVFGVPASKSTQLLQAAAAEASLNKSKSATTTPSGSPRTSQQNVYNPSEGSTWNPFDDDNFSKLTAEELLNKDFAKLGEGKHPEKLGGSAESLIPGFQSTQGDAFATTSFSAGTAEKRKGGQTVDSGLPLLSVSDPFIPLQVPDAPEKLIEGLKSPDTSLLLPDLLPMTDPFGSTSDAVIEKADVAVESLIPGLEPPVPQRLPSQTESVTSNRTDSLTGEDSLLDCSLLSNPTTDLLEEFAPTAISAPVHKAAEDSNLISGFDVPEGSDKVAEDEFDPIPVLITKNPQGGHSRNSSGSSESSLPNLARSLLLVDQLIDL

| SMILES | IC50 [nM] |
| --- | --- |
| Cc1nccc2c1c(=O)n(C)c1cc(OC[C@@H](N)CC(C)C)c(C(C)O)cc21 (single isomer, unassigned) [Example 30] | 1.7 |
| Cc1nccc2c1c(=O)n(C)c1cc(OC[C@@](C)(N)CC(C)C)ccc21 (single isomer, unassigned) [Example 38] | 13 |
| CC(C)C[C@H](N)COc1cc2c(cc1O)c1ccncc1c(=O)n2C [Example 7, (S)-8-(2-amino-4-methylpentyloxy)-9-hydroxy-6-methylbenzo[c][2,7]naphthyridin-5(6H)-one] | 11 |
| CC(C)C[C@H](N)COc1ccc2c3ccncc3c(=O)n(Cc3ccccc3)c2c1 [Example 11, (S)-8-((2-amino-4-methylpentyl)oxy)-6-benzylbenzo[c][2,7]naphthyridin-5(6H)-one] | 73 |
| COCCn1c(=O)c2cnccc2c2ccc(OC[C@@H](N)CC(C)C)cc21 [Example 12, (S)-8-((2-amino-4-methylpentyl)oxy)-6-(2-methoxyethyl)benzo[c][2,7]naphthyridin-5(6H)-one] | 85 |
| Cc1nccc2c1c(=O)n(C)c1cc(OC[C@@H](N)CC3CC3)ccc21 [Example 21, (S)-8-(2-amino-3-cyclopropylpropoxy)-4,6-dimethylbenzo[c][2,7]naphthyridin-5(6H)-one] | 23 |
| Cc1nccc2c1c(=O)n(C)c1cc(OC[C@@H](N)CC3CCC3)ccc21 [Example 22, (S)-8-(2-amino-3-cyclobutylpropoxy)-4,6-dimethylbenzo[c][2,7]naphthyridin-5(6H)-one] | 12 |
| CC(C)CC(C)(N)COc1ccc2c3ccncc3c(=O)n(C)c2c1 (centres unmarked) [Example 28, 8-((2-amino-2,4-dimethylpentyl)oxy)-6-methylbenzo[c][2,7]naphthyridin-5(6H)-one] | 1.1 |
| COc1cc2c3ccnc(C)c3c(=O)n(C)c2cc1OCC(C)(N)CC(C)C (centres unmarked) [Example 34, 8-((2-amino-2,4-dimethylpentyl)oxy)-9-methoxy-4,6-dimethylbenzo[c][2,7]naphthyridin-5(6H)-one] | 5.9 |
| Cc1nccc2c1c(=O)n(C)c1cc(OC[C@@H](N)CC(C)C)c(C(C)(C)O)cc21 [Example 35, (S)-8-((2-amino-4-methylpentyl)oxy)-9-(2-hydroxypropan-2-yl)-4,6-dimethylbenzo[c][2,7]naphthyridin-5(6H)-one] | 114 |
| CCc1cc2c3ccnc(C)c3c(=O)n(C)c2cc1OC[C@@H](N)CC(C)C [Example 36, (S)-8-((2-amino-4-methylpentyl)oxy)-9-ethyl-4,6-dimethylbenzo[c][2,7]naphthyridin-5(6H)-one] | 0.35 |
| Cc1nccc2c1c(=O)n(C)c1cc(OC[C@H](CC(C)C)N(C)C)ccc21 [Example 40, (S)-8-((2-(dimethylamino)-4-methylpentyl)oxy)-4,6-dimethylbenzo[c][2,7]naphthyridin-5(6H)-one] | 123 |
| CC(C)C[C@H](N)COc1ccc2c3ccncc3c(=O)n(CCO)c2c1 [Example 44, (S)-8-(2-amino-4-methylpentyloxy)-6-(2-hydroxyethyl)benzo[c][2,7]naphthyridin-5(6H)-one] | 41 |
| CC(C)C[C@H](N)COc1ccc2c3ccncc3c(=O)n(CC(F)(F)F)c2c1 [Example 45, (S)-8-(2-amino-4-methylpentyloxy)-6-(2,2,2-trifluoroethyl)benzo[c][2,7]naphthyridin-5(6H)-one] | 29 |
| COc1ccc(CNc2nccc3c2c(=O)n(C)c2cc(OC[C@@H](N)CC(C)C)ccc32)cc1 [Example 50, (S)-8-((2-amino-4-methylpentyl)oxy)-4-((4-methoxybenzyl)amino)-6-methylbenzo[c][2,7]naphthyridin-5(6H)-one] | 33 |
| CC(C)OC[C@H](N)COc1ccc2c3ccncc3c(=O)n(C)c2c1 [Example 53, (S)-8-(2-amino-3-isopropoxypropoxy)-6-methylbenzo[c][2,7]naphthyridin-5(6H)-one] | 119 |
| Cn1c(=O)c2cnccc2c2ccc(OCC3CCCCN3)cc21 (centres unmarked) [Example 57, 6-methyl-8-(piperidin-2-ylmethoxy)benzo[c][2,7]naphthyridin-5(6H)-one] | 229 |
| Cc1nccc2c1c(=O)n(C)c1c(Cl)c(OC[C@@H](N)CC(C)C)ccc21 [Example 61, (S)-8-((2-amino-4-methylpentyl)oxy)-7-chloro-4,6-dimethylbenzo[c][2,7]naphthyridin-5(6H)-one] | 126 |
| Cc1cc2c(cn1)c(=O)n(C)c1cc(OC[C@@H](N)CC(C)C)ccc21 [Example 67, (S)-8-((2-amino-4-methylpentyl)oxy)-2,6 dimethylbenzo[c][2,7]naphthyridin-5(6H)-one] | 893 |

same assay, conditions: given as IC50 range; ATP 22 μM, 3 hours at room temperature

| SMILES | IC50 [nM] |
| --- | --- |
| Cc1nccc2c1c(=O)n(C)c1cc(OC[C@@H](N)CC(C)C)c(C(C)O)cc21 (single isomer, unassigned) [Example 31] | 10 to 100 |
| Cc1nccc2c1c(=O)n(C)c1cc(OC[C@@H](N)CC(C)C(F)(F)F)ccc21 (single isomer, unassigned) [Example 87] | 1 to 10 |
| Cc1nccc2c1c(=O)n(C)c1cc(OCC(N)CC(F)(F)F)ccc21 (single isomer, unassigned) [Example 91] | 10 to 100 |
| Cc1nccc2c1c(=O)n(C)c1cc(OCC(N)CC(F)(F)F)ccc21 (single isomer, unassigned) [Example 92] | 1 to 10 |
| CC(C)C[C@H](N)COc1ccc2c3ccncc3c(=O)n(C(C)C)c2c1 [Example 8, (S)-8-((2-amino-4-methylpentyl)oxy)-6-isopropylbenzo[c][2,7]naphthyridin-5(6H)-one] | 10 to 100 |
| CC(C)C[C@H](N)COc1ccc2c3ccncc3c(=O)n(CC3CC3)c2c1 [Example 13, (S)-8-((2-amino-4-methylpentyl)oxy)-6-(cyclopropylmethyl)benzo[c][2,7]naphthyridin-5(6H)-one] | 10 to 100 |
| CC(=O)Nc1cc2c(cn1)c(=O)n(C)c1cc(OC[C@@H](N)CC(C)C)ccc21 [Example 18, (S)—N-(8-(2-amino-4-methylpentyloxy)-6-methyl-5-oxo-5,6-dihydrobenzo[c][2,7]naphthyridin-2-yl)acetamide] | 100 to 2000 |
| Cc1nccc2c1c(=O)n(C)c1c(F)c(OCC(C)(N)CC(C)C)ccc21 (centres unmarked) [Example 29, 8-((2-amino-2,4-dimethylpentyl)oxy)-7-fluoro-4,6-dimethylbenzo[c][2,7]naphthyridin-5(6H)-one] | 100 to 2000 |
| CN[C@H](COc1ccc2c3ccncc3c(=O)n(C)c2c1)CC(C)C [Example 54, (S)-6-methyl-8-((4-methyl-2-(methylamino)pentyl)oxy)benzo[c][2,7]naphthyridin-5(6H)-one] | 10 to 100 |
| Cn1c(=O)c2cnccc2c2ccc(OC[C@@H](N)CC(C)(F)F)cc21 [Example 55, (S)-8-((2-amino-4,4-difluoropentyl)oxy)-6-methylbenzo[c][2,7]naphthyridin-5(6H)-one] | 10 to 100 |
| CC(C)C[C@H](N)COc1ccc2c3ccnc(C(F)F)c3c(=O)n(C)c2c1 [Example 60, (S)-8-(2-amino-4-methylpentyloxy)-4-(difluoromethyl)-6-methylbenzo[c][2,7]naphthyridin-5(6H)-one] | 100 to 2000 |
| Cc1cc2c(cn1)c(=O)n(C)c1cc(OC[C@@H](N)CC(C)C)c(Br)cc21 [Example 66] | 100 to 2000 |
| Cc1cc2c(cn1)c(=O)n(C)c1cc(OC[C@@H](N)CC(C)C)c(Cl)cc21 [Example 68, (S)-8-((2-amino-4-methylpentyl)oxy)-9-chloro-2,6-dimethylbenzo[c][2,7]naphthyridin-5(6H)-one] | 10 to 100 |
